± gives the standard deviation of the averaged measurements.
Key:
[1] = compound: T1, CN(C)C/C=C/C(=O)Nc1cc2c(Nc3ccc(F)c(Cl)c3)ncnc2cc1O[C@H]1CCOC1 [AFATINIB]; test: surviving fraction relative to DMSO-only wells; higher = less growth inhibition; conditions: exposure time: 5 days
Outline: (§1)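 Surviving fraction was calculated by normalising CellTiter-Glo luminescence to the median of DMSO-only wells. Tumour cell lines in log phase were seeded in 384-well plates at 250–500 cells per well, and 24 hours later were exposed continuously for five days to inhibitors at 0.5, 1, 5, 10, 50, 100, 500 and 1000 nM.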

[2] = compound: Cn1cc(C2=Nc3cc(NC(=O)C(N)C4CCCCC4)cc4c3C2=CNNC4=O)cn1; test: as above; conditions: exposure time: 5 days
Outline: as §1

[3] = compound: T2, CC[C@@H]1C(=O)N(C)c2cnc(Nc3ccc(C(=O)NC4CCN(C)CC4)cc3OC)nc2N1C1CCCC1 [BI-2536]; test: as above; conditions: exposure time: 5 days
Outline: as §1

[4] = compound: T3, C=CC(=O)Nc1cc2c(Nc3ccc(F)c(Cl)c3)ncnc2cc1OCCCN1CCOCC1 [CANERTINIB]; test: as above; conditions: exposure time: 5 days
Outline: as §1

[5] = compound: T4, CCCCCCCCCCCCCCCC(=O)Nc1ccn([C@@H]2O[C@H](CO)[C@@H](O)[C@@H]2C#N)c(=O)n1 [SAPACITABINE]; test: as above; conditions: exposure time: 5 days
Outline: as §1

[6] = compound: T5, Nc1nc2[nH]cnc2c(=S)[nH]1 [TIOGUANINE]; test: as above; conditions: exposure time: 5 days
Outline: as §1

[7] = compound: T6, CC1(C)CC(=O)c2c(C(F)(F)F)nn(-c3ccc(C(N)=O)c(N[C@H]4CC[C@H](OC(=O)CN)CC4)c3)c2C1 [SNX-5422]; test: as above; conditions: exposure time: 5 days
Outline: as §1

[8] = compound: T7, CNC(=O)c1ccc(N2C(=S)N(c3ccc(C#N)c(C(F)(F)F)c3)C(=O)C2(C)C)cc1F [MDV3100]; test: as above; conditions: exposure time: 5 days
Outline: as §1

[9] = compound: T1, AFATINIB; test: area under dose-response curve of surviving fraction (unscaled, Aref=0) (surviving fraction x log10(nM)); higher = more resistant; conditions: exposure time: 5 days; dose range 0.5-1000 nM
Outline: (§2)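 Inhibitor was applied to tumour cell lines at eight concentrations (0.5 to 1000 nM) for five days in 384-well plates. Luminescence from CellTiter-Glo, scaled to DMSO-only wells, gave surviving fractions in three screens per line, and these were fitted by 3-parameter logistic regression with the drc R package. The area under the curve is an unscaled activity area. Aref was 0, and dose was on a log10 scale.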

[10] = compound: Cn1cc(C2=Nc3cc(NC(=O)C(N)C4CCCCC4)cc4c3C2=CNNC4=O)cn1; test: as above; conditions: exposure time: 5 days; dose range 0.5-1000 nM
Outline: as §2

[11] = compound: T2, BI-2536; test: as above; conditions: exposure time: 5 days; dose range 0.5-1000 nM
Outline: as §2

[12] = compound: T3, CANERTINIB; test: as above; conditions: exposure time: 5 days; dose range 0.5-1000 nM
Outline: as §2

[13] = compound: T4, SAPACITABINE; test: as above; conditions: exposure time: 5 days; dose range 0.5-1000 nM
Outline: as §2

[14] = compound: T5, TIOGUANINE; test: as above; conditions: exposure time: 5 days; dose range 0.5-1000 nM
Outline: as §2

[15] = compound: T6, SNX-5422; test: as above; conditions: exposure time: 5 days; dose range 0.5-1000 nM
Outline: as §2

[16] = compound: T7, MDV3100; test: as above; conditions: exposure time: 5 days; dose range 0.5-1000 nM
Outline: as §2

MG63 BONE
surviving fraction ([1]; 0.5 nM): 1.02 ± 0.046
surviving fraction ([1]; 1 nM): 1.03 ± 0.023
surviving fraction ([1]; 5 nM): 1.08 ± 0.022
surviving fraction ([1]; 10 nM): 1.058 ± 0.0069
surviving fraction ([1]; 50 nM): 1.05 ± 0.059
surviving fraction ([1]; 100 nM): 1.08 ± 0.017
surviving fraction ([1]; 500 nM): 0.951 ± 0.04
surviving fraction ([1]; 1000 nM): 0.831 ± 0.038
surviving fraction ([2]; 0.5 nM): 0.99 ± 0.033
surviving fraction ([2]; 1 nM): 1.02 ± 0.021
surviving fraction ([2]; 5 nM): 1.03 ± 0.024
surviving fraction ([2]; 10 nM): 1.05 ± 0.047
surviving fraction ([2]; 50 nM): 1.02 ± 0.058
surviving fraction ([2]; 100 nM): 0.822 ± 0.0046
surviving fraction ([2]; 500 nM): 0.0643 ± 0.0084
surviving fraction ([2]; 1000 nM): 0.101 ± 0.011
surviving fraction ([3]; 0.5 nM): 1.057 ± 0.0095
surviving fraction ([3]; 1 nM): 1.02 ± 0.053
surviving fraction ([3]; 5 nM): 0.884 ± 0.049
surviving fraction ([3]; 10 nM): 0.0403 ± 0.0059
surviving fraction ([3]; 50 nM): 0.033 ± 0.0017
surviving fraction ([3]; 100 nM): 0.023 ± 0.0017
surviving fraction ([3]; 500 nM): 0.029 ± 0.001
surviving fraction ([3]; 1000 nM): 0.03 ± 0.001
surviving fraction ([4]; 0.5 nM): 0.947 ± 0.015
surviving fraction ([4]; 1 nM): 0.919 ± 0.016
surviving fraction ([4]; 5 nM): 0.9893 ± 0.007
surviving fraction ([4]; 10 nM): 0.971 ± 0.013
surviving fraction ([4]; 50 nM): 1.02 ± 0.014
surviving fraction ([4]; 100 nM): 1.02 ± 0.011
surviving fraction ([4]; 500 nM): 0.993 ± 0.025
surviving fraction ([4]; 1000 nM): 1 ± 0.022
surviving fraction ([5]; 0.5 nM): 0.903 ± 0.027
surviving fraction ([5]; 1 nM): 0.898 ± 0.027
surviving fraction ([5]; 5 nM): 0.943 ± 0.021
surviving fraction ([5]; 10 nM): 0.9 ± 0.031
surviving fraction ([5]; 50 nM): 0.601 ± 0.014
surviving fraction ([5]; 100 nM): 0.357 ± 0.013
surviving fraction ([5]; 500 nM): 0.123 ± 0.019
surviving fraction ([5]; 1000 nM): 0.217 ± 0.013
surviving fraction ([6]; 0.5 nM): 0.974 ± 0.035
surviving fraction ([6]; 1 nM): 0.97 ± 0.015
surviving fraction ([6]; 5 nM): 1.01 ± 0.014
surviving fraction ([6]; 10 nM): 0.991 ± 0.007
surviving fraction ([6]; 50 nM): 1.02 ± 0.026
surviving fraction ([6]; 100 nM): 1.03 ± 0.026
surviving fraction ([6]; 500 nM): 0.989 ± 0.0069
surviving fraction ([6]; 1000 nM): 0.958 ± 0.03
surviving fraction ([7]; 0.5 nM): 1.04 ± 0.035
surviving fraction ([7]; 1 nM): 1.03 ± 0.047
surviving fraction ([7]; 5 nM): 1.09 ± 0.037
surviving fraction ([7]; 10 nM): 1.11 ± 0.053
surviving fraction ([7]; 50 nM): 0.496 ± 0.026
surviving fraction ([7]; 100 nM): 0.351 ± 0.029
surviving fraction ([7]; 500 nM): 0.13 ± 0.0085
surviving fraction ([7]; 1000 nM): 0.136 ± 0.013
surviving fraction ([8]; 0.5 nM): 0.988 ± 0.0044
surviving fraction ([8]; 1 nM): 0.953 ± 0.026
surviving fraction ([8]; 5 nM): 1.01 ± 0.015
surviving fraction ([8]; 10 nM): 0.999 ± 0.028
surviving fraction ([8]; 50 nM): 1.02 ± 0.013
surviving fraction ([8]; 100 nM): 1.02 ± 0.019
surviving fraction ([8]; 500 nM): 0.968 ± 0.03
surviving fraction ([8]; 1000 nM): 0.931 ± 0.011
area under dose-response curve [9]: 3.27
area under dose-response curve [10]: 2.46
area under dose-response curve [11]: 1.12
area under dose-response curve [12]: 3.24
area under dose-response curve [13]: 2.19
area under dose-response curve [14]: 3.29
area under dose-response curve [15]: 2.18
area under dose-response curve [16]: 3.28

NY BONE
surviving fraction ([1]; 0.5 nM): 0.991 ± 0.051
surviving fraction ([1]; 1 nM): 0.983 ± 0.013
surviving fraction ([1]; 5 nM): 1.02 ± 0.062
surviving fraction ([1]; 10 nM): 1.038 ± 0.008
surviving fraction ([1]; 50 nM): 1.03 ± 0.053
surviving fraction ([1]; 100 nM): 0.996 ± 0.017
surviving fraction ([1]; 500 nM): 0.683 ± 0.029
surviving fraction ([1]; 1000 nM): 0.392 ± 0.017
surviving fraction ([2]; 0.5 nM): 1 ± 0.015
surviving fraction ([2]; 1 nM): 0.984 ± 0.0061
surviving fraction ([2]; 5 nM): 1.03 ± 0.024
surviving fraction ([2]; 10 nM): 0.95 ± 0.042
surviving fraction ([2]; 50 nM): 0.458 ± 0.014
surviving fraction ([2]; 100 nM): 0.182 ± 0.014
surviving fraction ([2]; 500 nM): 0.0577 ± 0.0055
surviving fraction ([2]; 1000 nM): 0.0377 ± 0.0055
surviving fraction ([3]; 0.5 nM): 0.988 ± 0.025
surviving fraction ([3]; 1 nM): 0.851 ± 0.01
surviving fraction ([3]; 5 nM): 0.051 ± 0.0035
surviving fraction ([3]; 10 nM): 0.0633 ± 0.0051
surviving fraction ([3]; 50 nM): 0.17 ± 0.023
surviving fraction ([3]; 100 nM): 0.305 ± 0.0079
surviving fraction ([3]; 500 nM): 0.372 ± 0.0087
surviving fraction ([3]; 1000 nM): 0.298 ± 0.03
surviving fraction ([4]; 0.5 nM): 0.892 ± 0.042
surviving fraction ([4]; 1 nM): 0.905 ± 0.031
surviving fraction ([4]; 5 nM): 0.998 ± 0.027
surviving fraction ([4]; 10 nM): 0.956 ± 0.028
surviving fraction ([4]; 50 nM): 0.965 ± 0.052
surviving fraction ([4]; 100 nM): 0.955 ± 0.01
surviving fraction ([4]; 500 nM): 0.825 ± 0.034
surviving fraction ([4]; 1000 nM): 0.69 ± 0.009
surviving fraction ([5]; 0.5 nM): 0.923 ± 0.043
surviving fraction ([5]; 1 nM): 0.872 ± 0.042
surviving fraction ([5]; 5 nM): 0.911 ± 0.024
surviving fraction ([5]; 10 nM): 0.812 ± 0.026
surviving fraction ([5]; 50 nM): 0.368 ± 0.02
surviving fraction ([5]; 100 nM): 0.262 ± 0.011
surviving fraction ([5]; 500 nM): 0.133 ± 0.0087
surviving fraction ([5]; 1000 nM): 0.147 ± 0.0076
surviving fraction ([6]; 0.5 nM): 0.936 ± 0.013
surviving fraction ([6]; 1 nM): 0.955 ± 0.017
surviving fraction ([6]; 5 nM): 1.01 ± 0.022
surviving fraction ([6]; 10 nM): 0.972 ± 0.015
surviving fraction ([6]; 50 nM): 1.02 ± 0.049
surviving fraction ([6]; 100 nM): 1.01 ± 0.029
surviving fraction ([6]; 500 nM): 0.946 ± 0.025
surviving fraction ([6]; 1000 nM): 0.902 ± 0.039
surviving fraction ([7]; 0.5 nM): 0.9907 ± 0.0074
surviving fraction ([7]; 1 nM): 1.01 ± 0.04
surviving fraction ([7]; 5 nM): 1.05 ± 0.045
surviving fraction ([7]; 10 nM): 1.03 ± 0.047
surviving fraction ([7]; 50 nM): 0.086 ± 0.0061
surviving fraction ([7]; 100 nM): 0.128 ± 0.012
surviving fraction ([7]; 500 nM): 0.0563 ± 0.0047
surviving fraction ([7]; 1000 nM): 0.054 ± 0.0078
surviving fraction ([8]; 0.5 nM): 0.886 ± 0.021
surviving fraction ([8]; 1 nM): 0.887 ± 0.029
surviving fraction ([8]; 5 nM): 0.943 ± 0.035
surviving fraction ([8]; 10 nM): 0.933 ± 0.023
surviving fraction ([8]; 50 nM): 0.93 ± 0.0093
surviving fraction ([8]; 100 nM): 1.01 ± 0.022
surviving fraction ([8]; 500 nM): 0.924 ± 0.026
surviving fraction ([8]; 1000 nM): 0.884 ± 0.039
area under dose-response curve [9]: 3.1
area under dose-response curve [10]: 2.01
area under dose-response curve [11]: 0.972
area under dose-response curve [12]: 3.13
area under dose-response curve [13]: 1.91
area under dose-response curve [14]: 3.27
area under dose-response curve [15]: 1.89
area under dose-response curve [16]: 3.06

Reference: the supplement of paper PMC6045584
